Assay results reported in the supplement of paper PMC11061612.

Tests used:
Test in all cases: combination Emax (second highest fraction inhibited in the dose matrix, 72 h); higher = more inhibition; extreme values may be limits of the assay
[1] = tested on: NCI-H23 (Lung Adenocarcinoma)
How it was run: (§1)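 Bliss excess equals the observed combination effect minus the expected value EA + EB − EA·EB, where EA and EB are the effects of each agent alone. Combination Emax is the second-highest inhibition within the matrix. Inhibition was scaled from CellTiter-Glo 2.0 luminescence, with 0 set by vehicle wells and 1 by blank wells, after 72 hours of two-drug dosing of cells plated in 1536-well plates.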

GB-1 (Glioblastoma) = tested on: GB-1 (Glioblastoma)
How it was run: as §1

[2] = tested on: TE-8 (Esophageal Squamous Cell Carcinoma)
How it was run: as §1

[3] = tested on: CAL-120 (Breast Carcinoma)
How it was run: as §1

WM278 (Melanoma) = tested on: WM278 (Melanoma)
How it was run: as §1

[4] = tested on: KE-37 (T-Lymphoblastic Leukemia)
How it was run: as §1

| SMILES | combination Emax [1] | combination Emax (GB-1 (Glioblastoma)) | combination Emax [2] | combination Emax [3] | combination Emax (WM278 (Melanoma)) | combination Emax [4] |
| --- | --- | --- | --- | --- | --- | --- |
| CN(CCO)CC[C@H](CSc1ccccc1)Nc1ccc(S(=O)(=O)NC(=O)c2ccc(N3CCC([C@@H](O)c4ccccc4-c4ccc(Cl)cc4)CC3)cc2)cc1S(=O)(=O)C(F)(F)F [AZD4320] + Cn1cnc2c(F)c(Nc3ccc(Br)cc3Cl)c(C(=O)NOCCO)cc21 [Selumetinib] (first compound max 1 µM, 7x7, partner max 3 µM) | 0.435 | 0.519 | 0.502 | 0.8 | 0.918 | 1 |
| Cc1c2c(nn1C)CSCc1cc(n(C)n1)CSc1cc(c3ccccc3c1)OCCCc1c(C(=O)O)n(C)c3c-2c(Cl)ccc13 [AZD5991] + C1CN(CCC1(C(=O)N[C@@H](CCO)C2=CC=C(C=C2)Cl)N)C3=NC=NC4=C3C=CN4 [Capivasertib] (first compound max 1 µM, 7x7, partner max 3 µM) | 0.899 | 0.195 | 0.523 | 0.256 | 0.266 | 1 |
| Cc1c2c(nn1C)CSCc1cc(n(C)n1)CSc1cc(c3ccccc3c1)OCCCc1c(C(=O)O)n(C)c3c-2c(Cl)ccc13 [AZD5991] + C=CCn1c(=O)c2cnc(Nc3ccc(N4CCN(C)CC4)cc3)nc2n1-c1cccc(C(C)(C)O)n1 [AZD1775] (first compound max 1 µM, partner max 1 µM) | 0.966 | 0.293 | 0.818 | 0.405 | 0.463 | 0.995 |
| Cc1c2c(nn1C)CSCc1cc(n(C)n1)CSc1cc(c3ccccc3c1)OCCCc1c(C(=O)O)n(C)c3c-2c(Cl)ccc13 [AZD5991] + CC1(C)CCC(CN2CCN(c3ccc(C(=O)NS(=O)(=O)c4ccc(NCC5CCOCC5)c([N+](=O)[O-])c4)c(Oc4cnc5[nH]ccc5c4)c3)CC2)=C(c2ccc(Cl)cc2)C1 [Venetoclax] (first compound max 1 µM, 7x7, partner max 1 µM) | 0.899 | 0.133 | 0.403 | 0.121 | 0.291 | 0.987 |
| Cc1c2c(nn1C)CSCc1cc(n(C)n1)CSc1cc(c3ccccc3c1)OCCCc1c(C(=O)O)n(C)c3c-2c(Cl)ccc13 [AZD5991] + CCN(CCO)CCCOc1ccc2c(Nc3cc(CC(=O)Nc4cccc(F)c4)[nH]n3)ncnc2c1 [AZD2811] (first compound max 1 µM, 7x7, partner max 1 µM) | 0.926 | 0.264 | 0.529 | 0.21 | 0.396 | 1 |
| Cc1c2c(nn1C)CSCc1cc(n(C)n1)CSc1cc(c3ccccc3c1)OCCCc1c(C(=O)O)n(C)c3c-2c(Cl)ccc13 [AZD5991] + CN(C)CCCOc1ccc(-c2ccc3ncc4c(c3c2)n(C2CCOCC2)c(=O)n4C)cn1 [AZD0156] (first compound max 1 µM, 7x7, partner max 1 µM) | 0.913 | 0.186 | 0.379 | 0.171 | 0.248 | 0.939 |
| Cc1c2c(nn1C)CSCc1cc(n(C)n1)CSc1cc(c3ccccc3c1)OCCCc1c(C(=O)O)n(C)c3c-2c(Cl)ccc13 [AZD5991] + C[C@@H]1COCCN1C2=NC(=NC(=C2)C3(CC3)[S@](=N)(=O)C)C4=C5C=CNC5=NC=C4 [AZD6738] (first compound max 1 µM, 7x7, partner max 10 µM) | 0.977 | 0.489 | 0.751 | 0.413 | 0.562 | 1 |
| Cc1c2c(nn1C)CSCc1cc(n(C)n1)CSc1cc(c3ccccc3c1)OCCCc1c(C(=O)O)n(C)c3c-2c(Cl)ccc13 [AZD5991] + C[C@@H](Nc1cc(F)cc(F)c1)c1cc(C(=O)N(C)C)cc2c(=O)cc(N3CCOCC3)oc12 [AZD8186] (first compound max 1 µM, 7x7, partner max 3 µM) | 0.896 | 0.219 | 0.373 | 0.218 | 0.365 | 0.919 |
| Cc1c2c(nn1C)CSCc1cc(n(C)n1)CSc1cc(c3ccccc3c1)OCCCc1c(C(=O)O)n(C)c3c-2c(Cl)ccc13 [AZD5991] + Cc1cc2ncnn2cc1Nc1ncc2c(n1)n(C1CCOCC1)c(=O)n2C [AZD7648] (first compound max 1 µM, 7x7, partner max 10 µM) | 0.934 | 0.264 | 0.427 | 0.252 | 0.285 | 0.975 |
| Cc1c2c(nn1C)CSCc1cc(n(C)n1)CSc1cc(c3ccccc3c1)OCCCc1c(C(=O)O)n(C)c3c-2c(Cl)ccc13 [AZD5991] + Cn1cnc2c(F)c(Nc3ccc(Br)cc3Cl)c(C(=O)NOCCO)cc21 [Selumetinib] (first compound max 1 µM, 7x7, partner max 3 µM) | 0.934 | 0.174 | 0.415 | 0.167 | 0.648 | 0.947 |
| C[C@@H]1COCCN1c1cc(C2([S@](C)(=N)=O)CC2)nc(-c2ccnc3[nH]ccc23)n1 [AZD6738] + O=C(c1cc(Cc2n[nH]c(=O)c3ccccc23)ccc1F)N1CCN(C(=O)C2CC2)CC1 [Olaparib] (first compound max 10 µM, 7x7, partner max 10 µM) | 0.753 | 0.478 | 0.757 | 0.386 | 0.233 | 1 |
| Cc1cc2ncnn2cc1Nc1ncc2c(n1)n(C1CCOCC1)c(=O)n2C [AZD7648] + C=CCn1c(=O)c2cnc(Nc3ccc(N4CCN(C)CC4)cc3)nc2n1-c1cccc(C(C)(C)O)n1 [AZD1775] (first compound max 10 µM, partner max 1 µM) | 0.786 | 0.439 | 0.814 | 0.498 | 0.254 | 1 |
| Cc1cc2ncnn2cc1Nc1ncc2c(n1)n(C1CCOCC1)c(=O)n2C [AZD7648] + CCN(CCO)CCCOc1ccc2c(Nc3cc(CC(=O)Nc4cccc(F)c4)[nH]n3)ncnc2c1 [AZD2811] (first compound max 10 µM, 7x7, partner max 1 µM) | 0.228 | 0.166 | 0.354 | 0.334 | 0.157 | 1 |
| Cc1cc2ncnn2cc1Nc1ncc2c(n1)n(C1CCOCC1)c(=O)n2C [AZD7648] + CN(C)CCCOc1ccc(-c2ccc3ncc4c(c3c2)n(C2CCOCC2)c(=O)n4C)cn1 [AZD0156] (first compound max 10 µM, 7x7, partner max 1 µM) | 0.103 | 0.19 | 0.325 | 0.414 | 0.188 | 0.659 |
| Cc1cc2ncnn2cc1Nc1ncc2c(n1)n(C1CCOCC1)c(=O)n2C [AZD7648] + C[C@@H]1COCCN1C2=NC(=NC(=C2)C3(CC3)[S@](=N)(=O)C)C4=C5C=CNC5=NC=C4 [AZD6738] (first compound max 10 µM, 7x7, partner max 10 µM) | 0.603 | 0.544 | 0.75 | 0.325 | 0.33 | 1 |
| Cc1cc2ncnn2cc1Nc1ncc2c(n1)n(C1CCOCC1)c(=O)n2C [AZD7648] + O=C(c1cc(Cc2n[nH]c(=O)c3ccccc23)ccc1F)N1CCN(C(=O)C2CC2)CC1 [Olaparib] (first compound max 10 µM, 7x7, partner max 10 µM) | 0.213 | 0.23 | 0.184 | 0.149 | 0.0954 | 0.585 |
| COc1cccc2c1C(=O)c1c(O)c3c(c(O)c1C2=O)C[C@@](O)(C(=O)CO)C[C@@H]3O[C@H]1C[C@H](N)[C@H](O)[C@H](C)O1 [Doxorubicin] + Cc1cc2ncnn2cc1Nc1ncc2c(n1)n(C1CCOCC1)c(=O)n2C [AZD7648] (first compound max 1 µM, 7x7, partner max 10 µM) | 0.588 | 0.418 | 0.774 | 0.47 | 0.631 | 1 |
| COc1cccc(OCCCN)c1-c1cc(Nc2cnc(C#N)cn2)n[nH]1 [Prexasertib] + C=CCn1c(=O)c2cnc(Nc3ccc(N4CCN(C)CC4)cc3)nc2n1-c1cccc(C(C)(C)O)n1 [AZD1775] (first compound max 1 µM, partner max 1 µM) | 0.918 | 0.651 | 0.966 | 0.685 | 0.605 | 1 |
| COc1cccc(OCCCN)c1-c1cc(Nc2cnc(C#N)cn2)n[nH]1 [Prexasertib] + CCc1c2c(nc3ccc(O)cc13)-c1cc3c(c(=O)n1C2)COC(=O)[C@]3(O)CC [SN-38] (first compound max 1 µM, 7x7, partner max 0.3 µM) | 0.948 | 0.836 | 0.972 | 0.85 | 0.695 | 1 |
| COc1cccc(OCCCN)c1-c1cc(Nc2cnc(C#N)cn2)n[nH]1 [Prexasertib] + CN(C)CCCOc1ccc(-c2ccc3ncc4c(c3c2)n(C2CCOCC2)c(=O)n4C)cn1 [AZD0156] (first compound max 1 µM, 7x7, partner max 1 µM) | 0.882 | 0.485 | 0.914 | 0.456 | 0.574 | 1 |
| COc1cccc(OCCCN)c1-c1cc(Nc2cnc(C#N)cn2)n[nH]1 [Prexasertib] + C[C@@H]1COCCN1C2=NC(=NC(=C2)C3(CC3)[S@](=N)(=O)C)C4=C5C=CNC5=NC=C4 [AZD6738] (first compound max 1 µM, 7x7, partner max 10 µM) | 0.884 | 0.691 | 0.933 | 0.446 | 0.569 | 1 |
| COc1cccc(OCCCN)c1-c1cc(Nc2cnc(C#N)cn2)n[nH]1 [Prexasertib] + Cc1cc2ncnn2cc1Nc1ncc2c(n1)n(C1CCOCC1)c(=O)n2C [AZD7648] (first compound max 1 µM, 7x7, partner max 10 µM) | 0.889 | 0.458 | 0.937 | 0.512 | 0.596 | 1 |
| COc1cccc(OCCCN)c1-c1cc(Nc2cnc(C#N)cn2)n[nH]1 [Prexasertib] + O=C(c1cc(Cc2n[nH]c(=O)c3ccccc23)ccc1F)N1CCN(C(=O)C2CC2)CC1 [Olaparib] (first compound max 1 µM, 7x7, partner max 10 µM) | 0.879 | 0.439 | 0.902 | 0.526 | 0.627 | 1 |
| COc1cc2c(cc1OCCCCCOc1cc3c(cc1OC)C(=O)N1C=C(C)C[C@H]1C=N3)N=C[C@@H]1CC(C)=CN1C2=O [SG3199] + O=C(c1cc(Cc2n[nH]c(=O)c3ccccc23)ccc1F)N1CCN(C(=O)C2CC2)CC1 [Olaparib] (first compound max 0.001 µM, 7x7, partner max 10 µM) | 0.253 | 0.141 | 0.109 | 0.142 | 0.0771 | 0.348 |
